Experimental data: US20100137305A1, “AMINOPYRIMIDINES USEFUL AS KINASE INHIBITORS” (VERTEX PHARMACEUTICALS INCORPORATED, priority 2008, published 2010)
Like-named read-outs stand apart in the source and are kept apart here.

Tests used:
[1] = tested on: Colo205 cells; assay: Analysis of Cell Proliferation, 3H thymidine incorporation; format: cell-based; conditions: Homo sapiens
Procedure: Compounds were screened for their ability to inhibit cell proliferation using Colo205 cells obtained from ECACC and using the assay shown below.
Colo205 cells were seeded in 96 well plates and serially diluted compound was added to the wells in duplicate. Control groups included untreated cells, the compound diluent (0.1% DMSO alone) and culture medium without cells. The cells were then incubated for 72 or 96 hrs at 37C in an atmosphere of 5% CO2/95% humidity.
To measure proliferation, 3 h prior to the end of the experiment 0.5 μCi of 3H thymidine was added to each well. Cells were then harvested and the incorporated radioactivity counted on a Wallac microplate beta-counter. Dose response curves were calculated using either Prism 3.0 (GraphPad) or SoftMax Pro 4.3.1 LS (Molecular Devices) software.

[2] = target: N-terminally truncated (Δ 27) Abl kinase (Homo sapiens, UniProt P00519); assay: Abl Kinase Activity Inhibition Assay, coupled enzyme system; format: biochemical; conditions: 110 μM ATP, 30° C.
Chain of N-terminally truncated (Δ 27) Abl kinase (P00519 whole entry, stated change not applied, the tested form may be a part): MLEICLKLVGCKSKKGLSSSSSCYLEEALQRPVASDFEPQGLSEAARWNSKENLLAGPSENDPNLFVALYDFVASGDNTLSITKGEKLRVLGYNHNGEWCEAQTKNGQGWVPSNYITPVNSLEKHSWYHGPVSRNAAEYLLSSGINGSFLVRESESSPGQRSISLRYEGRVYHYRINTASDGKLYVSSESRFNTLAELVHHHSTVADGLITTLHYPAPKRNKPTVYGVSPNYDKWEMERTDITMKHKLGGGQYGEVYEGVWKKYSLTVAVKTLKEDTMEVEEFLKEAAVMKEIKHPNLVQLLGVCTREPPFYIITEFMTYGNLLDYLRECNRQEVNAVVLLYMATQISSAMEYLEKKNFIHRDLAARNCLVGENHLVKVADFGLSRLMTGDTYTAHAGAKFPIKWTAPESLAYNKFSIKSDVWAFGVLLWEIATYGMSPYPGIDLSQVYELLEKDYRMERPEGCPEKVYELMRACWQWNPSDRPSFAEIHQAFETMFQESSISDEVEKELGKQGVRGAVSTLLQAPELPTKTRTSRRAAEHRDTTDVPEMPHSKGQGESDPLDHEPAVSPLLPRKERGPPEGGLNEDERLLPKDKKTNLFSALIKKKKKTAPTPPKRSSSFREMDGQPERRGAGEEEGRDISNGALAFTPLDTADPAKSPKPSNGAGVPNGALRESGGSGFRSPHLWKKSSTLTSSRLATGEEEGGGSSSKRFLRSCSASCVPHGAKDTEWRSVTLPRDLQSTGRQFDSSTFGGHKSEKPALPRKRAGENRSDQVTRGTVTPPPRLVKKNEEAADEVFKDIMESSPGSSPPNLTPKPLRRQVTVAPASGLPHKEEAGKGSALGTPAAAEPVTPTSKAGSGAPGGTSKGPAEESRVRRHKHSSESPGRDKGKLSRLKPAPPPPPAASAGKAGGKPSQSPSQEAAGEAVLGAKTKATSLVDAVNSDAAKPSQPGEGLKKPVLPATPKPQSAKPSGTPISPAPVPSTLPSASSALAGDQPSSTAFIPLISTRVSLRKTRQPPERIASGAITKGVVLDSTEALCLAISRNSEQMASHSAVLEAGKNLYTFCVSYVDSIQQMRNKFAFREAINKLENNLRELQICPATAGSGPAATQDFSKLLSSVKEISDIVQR
Procedure: Compounds were screened for their ability to inhibit N-terminally truncated (Δ 27) Abl kinase activity using a standard coupled enzyme system (Fox et al., Protein Sci., 7, pp. 2249 (1998)). Reactions were carried out in a solution containing 100 mM HEPES (pH 7.5), 10 mM MgCl2, 25 mM NaCl, 300 μM NADH, 1 mM DTT and 3% DMSO. Final substrate concentrations in the assay were 110 μM ATP (Sigma Chemicals, St Louis, Mo.) and 70 μM peptide (EAIYAAPFAKKK, American Peptide, Sunnyvale, Calif.). Reactions were carried out at 30° C. and 21 nM Abl kinase. Final concentrations of the components of the coupled enzyme system were 2.5 mM phosphoenolpyruvate, 200 μM NADH, 60 μg/ml pyruvate kinase and 20 μg/ml lactate dehydrogenase.
An assay stock buffer solution was prepared containing all of the reagents listed above with the exception of ATP and the test compound of interest. The assay stock buffer solution (60 μl) was incubated in a 96 well plate with 2 μl of the test compound of interest at final concentrations typically spanning 0.002 μM to 30 μM at 30° C. for 10 min. Typically, a 12 point titration was prepared by serial dilutions (from 1 mM compound stocks) with DMSO of the test compounds in daughter plates. The reaction was initiated by the addition of 5 μl of ATP (final concentration 110 μM). Rates of reaction were obtained using a Molecular Devices Spectramax plate reader (Sunnyvale, Calif.) over 10 min at 30° C. The Ki values were determined from the residual rate data as a function of inhibitor concentration using nonlinear regression (Prism 3.0, Graphpad Software, San Diego, Calif.).

[3] = target: T1, Aurora-2 (Aurora A) (Homo sapiens, UniProt O14965); assay: Aurora-2 (Aurora A) Inhibition Assay, coupled enzyme assay; format: biochemical; conditions: 400 μM ATP, 30° C.; read-out: Aurora A kinase activity Ki
T1 sequence (O14965 1-403): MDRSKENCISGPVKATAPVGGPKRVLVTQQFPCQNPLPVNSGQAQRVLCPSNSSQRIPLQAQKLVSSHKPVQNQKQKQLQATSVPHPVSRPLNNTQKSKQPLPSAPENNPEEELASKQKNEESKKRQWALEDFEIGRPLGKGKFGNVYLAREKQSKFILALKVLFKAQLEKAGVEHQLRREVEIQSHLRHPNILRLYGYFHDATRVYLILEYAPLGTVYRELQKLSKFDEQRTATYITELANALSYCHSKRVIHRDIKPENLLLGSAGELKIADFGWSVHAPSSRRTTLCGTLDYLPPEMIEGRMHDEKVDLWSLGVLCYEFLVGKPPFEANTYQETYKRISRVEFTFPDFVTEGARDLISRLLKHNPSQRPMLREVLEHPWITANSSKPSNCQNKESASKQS
Procedure: Compounds were screened for their ability to inhibit Aurora-2 using a standard coupled enzyme assay (Fox et al., Protein Sci., (1998) 7, 2249). Assays were carried out in a mixture of 100 mM Hepes (pH7.5), 10 mM MgCl2, 1 mM DTT, 25 mM NaCl, 2.5 mM phosphoenolpyruvate, 300 μM NADH, 30 μg/ml pyruvate kinase and 10 μg/ml lactate dehydrogenase. Final substrate concentrations in the assay were 400 μM ATP (Sigma Chemicals) and 570 μM peptide (Kemptide, American Peptide, Sunnyvale, Calif.). Assays were carried out at 30° C. and in the presence of 40 nM Aurora-2.
An assay stock buffer solution was prepared containing all of the reagents listed above, with the exception of Aurora-2 and the test compound of interest. 55 μl of the stock solution was placed in a 96 well plate followed by addition of 2 μl of DMSO stock containing serial dilutions of the test compound (typically starting from a final concentration of 7.5 μM). The plate was preincubated for 10 minutes at 30° C. and the reaction initiated by addition of 10 μl of Aurora-2. Initial reaction rates were determined with a Molecular Devices SpectraMax Plus plate reader over a 10 minute time course. IC50 and Ki data were calculated from non-linear regression analysis using the Prism software package (GraphPad Prism version 3.0cx for Macintosh, GraphPad Software, San Diego Calif., USA).

[4] = target: Aurora-1 (Aurora B) (Homo sapiens, UniProt Q96GD4); assay: Aurora-1 (Aurora B) Inhibition Assay (radiometric); format: biochemical; conditions: 800 μM ATP; read-out: Aurora B kinase activity Ki
Chain of Aurora-1 (Aurora B) (Q96GD4 whole entry): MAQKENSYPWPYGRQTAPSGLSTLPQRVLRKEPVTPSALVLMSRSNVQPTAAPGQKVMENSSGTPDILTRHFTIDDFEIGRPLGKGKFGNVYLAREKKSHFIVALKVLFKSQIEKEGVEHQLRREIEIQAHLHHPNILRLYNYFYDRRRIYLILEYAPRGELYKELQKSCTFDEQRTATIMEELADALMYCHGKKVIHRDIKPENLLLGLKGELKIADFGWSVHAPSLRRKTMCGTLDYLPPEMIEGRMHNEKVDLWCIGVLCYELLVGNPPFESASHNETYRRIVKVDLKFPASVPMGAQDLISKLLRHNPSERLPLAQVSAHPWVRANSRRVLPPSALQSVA
Procedure: An assay buffer solution was prepared which consisted of 25 mM HEPES (pH 7.5), 10 mM MgCl2, 0.1% BSA and 10% glycerol. A 22 nM Aurora-B solution, also containing 1.7 mM DTT and 1.5 mM Kemptide (LRRASLG), was prepared in assay buffer. To 22 μL of the Aurora-B solution, in a 96-well plate, was added 2 μl of a compound stock solution in DMSO and the mixture allowed to equilibrate for 10 minutes at 25° C. The enzyme reaction was initiated by the addition of 16 μl stock [γ-^33P]-ATP Pi-ATP solution (˜20 nCi/μL) prepared in assay buffer, to a final assay concentration of 800 μM. The reaction was stopped after 3 hours by the addition of 16 μL 500 mM phosphoric acid and the levels of ^33P incorporation into the peptide substrate were determined by the following method.
A phosphocellulose 96-well plate (Millipore, Cat no. MAPHNOB50) was pre-treated with 100 μL of a 100 mM phosphoric acid prior to the addition of the enzyme reaction mixture (40 μL). The solution was left to soak on to the phosphocellulose membrane for 30 minutes and the plate subsequently washed four times with 200 μL of a 100 mM phosphoric acid. To each well of the dry plate was added 30 μL of Optiphase ‘SuperMix’ liquid scintillation cocktail (Perkin Elmer) prior to scintillation counting (1450 Microbeta Liquid Scintillation Counter, Wallac). Levels of non-enzyme catalyzed background radioactivity were determined by adding 16 μL of the 500 mM phosphoric acid to control wells, containing all assay components (which acts to denature the enzyme), prior to the addition of the [γ-^33P]-ATP solution. Levels of enzyme catalyzed ^33P incorporation were calculated by subtracting mean background counts from those measured at each inhibitor concentration. For each Ki determination 8 data points, typically covering the concentration range 0-10 μM compound, were obtained in duplicate (DMSO stocks were prepared from an initial compound stock of 10 mM with subsequent 1:2.5 serial dilutions). Ki values were calculated from initial rate data by non-linear regression using the Prism software package (Prism 3.0, Graphpad Software, San Diego, Calif.).

[5] = COLO 205, 96 h, 96 hours, read-out: IC50 cell proliferation after 96 hours
[6] = COLO 205, 72 h, 72 hours, read-out: IC50 cell proliferation after 72 hours

Row | IC50 [1, 5] | Ki [2] | Ki [3] | Ki [4] | IC50 [1, 6] | Structure (SMILES)
1 | 50 to 200 nM | 25 to 100 nM | ≤ 10 nM | – | – | Cc1cnc(Nc2cc(N3CC[C@H](O)C3)nc(Sc3ccc(NC(=O)C4CC4)cc3)n2)s1 [Compound I-12]
2 | 50 to 200 nM | < 25 nM | ≤ 10 nM | – | – | CCC(=O)Nc1ccc(Sc2nc(Nc3cc(C)n[nH]3)cc(N3CC[C@@H](N(C)C)C3)n2)cc1 [Compound I-24]
3 | 50 to 200 nM | – | ≤ 10 nM | 10 to 50 nM | – | CCC(=O)Nc1ccc(Sc2nc(Nc3cc(C)n[nH]3)cc(N3CCC(C#N)CC3)n2)cc1 [Compound I-16]
4 | ≤ 50 nM | – | ≤ 10 nM | 10 to 50 nM | – | CCC(=O)Nc1ccc(Sc2nc(Nc3cc(C4CC4)n[nH]3)cc(N3CC[C@H](N4CCCC4)C3)n2)cc1 [Compound I-62]
5 | – | – | ≤ 10 nM | 10 to 50 nM | 25 to 125 nM | Cc1cc(Nc2cc(N3CCC(F)(F)CC3)nc(Sc3ccc(NC(=O)CC(F)(F)F)cc3)n2)[nH]n1 [Compound I-84]
6 | ≤ 50 nM | – | ≤ 10 nM | 10 to 50 nM | ≤ 25 nM | Cc1cnc(Nc2cc(N3CC4CCCNC4C3)nc(Sc3ccc(NC(=O)C4CC4)cc3)n2)s1 (centres unmarked) [Compound I-59]
7 | – | – | ≤ 10 nM | 10 to 50 nM | ≤ 25 nM | Cc1cc(Nc2cc(N3CCC(N4CCN(C)CC4)CC3)nc(Sc3ccc(NC(=O)CC(F)(F)F)cc3)n2)[nH]n1 [Compound I-73]
8 | – | – | ≤ 10 nM | 10 to 50 nM | 25 to 125 nM | Cc1cc(Nc2cc(N3CCC(N4CCOCC4)CC3)nc(Sc3ccc(NC(=O)C4CC4(F)F)cc3)n2)[nH]n1 (centres unmarked) [Compound I-75]
9 | – | – | ≤ 10 nM | ≤ 10 nM | ≤ 25 nM | Cc1cc(Nc2cc(N3CCC(N4CCOCC4)CC3)nc(Sc3ccc(NC(=O)C4(C(F)(F)F)CC4)cc3)n2)[nH]n1 [Compound I-67]
10 | ≤ 50 nM | – | ≤ 10 nM | 10 to 50 nM | – | Cc1cc(Nc2cc(N3CCC4(CCN(C)C4)CC3)nc(Sc3ccc(NC(=O)C4CC4)cc3F)n2)[nH]n1 [Compound I-54]
11 | 50 to 200 nM | – | ≤ 10 nM | 10 to 50 nM | – | CCC(=O)Nc1ccc(Sc2nc(Nc3cc(C)[nH]n3)cc(N3CCC(=O)CC3)n2)cc1 [Compound I-17]
12 | 50 to 200 nM | – | ≤ 10 nM | 10 to 50 nM | 25 to 125 nM | Cc1cc(Nc2cc(N3CCCC(F)(F)C3)nc(Sc3ccc(NC(=O)CC(F)(F)F)cc3)n2)[nH]n1 [Compound I-26]
13 | – | – | ≤ 10 nM | 10 to 50 nM | ≤ 25 nM | Cc1cnc(Nc2cc(N3CCC(N4CCN(C)CC4)CC3)nc(Sc3ccc(NC(=O)CC(F)(F)F)cc3)n2)s1 [Compound I-66]
14 | 50 to 200 nM | – | ≤ 10 nM | ≤ 10 nM | – | Cc1cc(Nc2cc(N3CCC4(CCN(C)C4)CC3)nc(Sc3ccc(NC(=O)C4CC4)c(F)c3)n2)[nH]n1 [Compound I-32]
15 | – | – | ≤ 10 nM | 10 to 50 nM | ≤ 25 nM | Cc1cc(Nc2cc(N3CCC(N4CCN(C)CC4)CC3)nc(Sc3ccc(NC(=O)C4(C(F)(F)F)CC4)cc3)n2)[nH]n1 [Compound I-64]
16 | ≤ 50 nM | – | ≤ 10 nM | 10 to 50 nM | – | CCC(=O)Nc1ccc(Sc2nc(Nc3cc(C)n[nH]3)cc(N3CCC(O)(C(C)C)CC3)n2)cc1 [Compound I-58]
17 | 50 to 200 nM | – | ≤ 10 nM | 10 to 50 nM | – | CCC(=O)Nc1ccc(Sc2nc(Nc3cc(C)n[nH]3)cc(N3CC[C@@H](NC)C3)n2)cc1 [Compound I-9]
18 | ≤ 50 nM | – | ≤ 10 nM | 10 to 50 nM | – | CCC(=O)Nc1ccc(Sc2nc(Nc3cc(C)n[nH]3)cc(N3CCC(N(C)C(C)(C)C)CC3)n2)cc1 [Compound I-47]
19 | 50 to 200 nM | – | ≤ 10 nM | ≤ 10 nM | – | Cc1cc(Nc2cc(N3CCC(F)C3)nc(Sc3ccc(NC(=O)c4ccccc4Cl)cc3)n2)[nH]n1 (centres unmarked) [Compound I-35]
20 | ≤ 50 nM | – | ≤ 10 nM | 10 to 50 nM | – | CCC(=O)Nc1ccc(Sc2nc(Nc3ncc(C)s3)cc(N3CCC(N4CCCC4)CC3)n2)cc1 [Compound I-49]
21 | – | < 25 nM | – | – | – | Cc1cc(Nc2cc(N3CCC(F)C3)nc(Sc3ccc(NC(=O)CC(F)(F)F)cc3)n2)[nH]n1 (centres unmarked) [Compound I-78]
22 | – | < 25 nM | ≤ 10 nM | – | – | Cc1cnc(Nc2cc(N3CCC(N4CCOCC4)CC3)nc(Sc3ccc(NC(=O)C4CC4)cc3)n2)s1 [Compound I-4]
23 | ≤ 50 nM | – | ≤ 10 nM | 10 to 50 nM | – | CCC(=O)Nc1ccc(Sc2nc(Nc3cc(C)n[nH]3)cc(N3CCC(O)(CC)CC3)n2)cc1 [Compound I-44]
24 | – | – | ≤ 10 nM | 10 to 50 nM | 25 to 125 nM | Cc1cc(Nc2cc(N3CCC(N4CCCC4)CC3)nc(Sc3ccc(NC(=O)CC4CCCC4)cc3)n2)n[nH]1 [Compound I-77]
25 | 50 to 200 nM | – | ≤ 10 nM | 10 to 50 nM | – | Cc1cc(Nc2cc(N3CCC4(CC3)CCN(C(C)C)C4)nc(Sc3ccc(NC(=O)C4CC4)cc3)n2)[nH]n1 [Compound I-31]
26 | 50 to 200 nM | – | ≤ 10 nM | 10 to 50 nM | – | CCC(=O)Nc1ccc(Sc2nc(Nc3cc(C)n[nH]3)cc(N3CCC(C)(O)C3)n2)cc1 (centres unmarked) [Compound I-11]
